Laboratory results from US11807635B2, “Nitrile derivative that acts as inhibitor of dipeptidyl peptidase 1 and use thereof” (HAISCO PHARMACEUTICALS PTE. LTD, priority 2020, dated 2023).

Legend:
[1] = molecular target: Recombinant human DPP1 enzyme (Homo sapiens (Human), UniProt P53634); experiment: In vitro DPP1 enzyme activity assay; type: biochemical; settings: recombinant human DPP1 activated with cathepsin L, substrate Gly-Arg-AMC, fluorescence; read-out: DPP1 inhibitory activity IC50
Description: Recombinant human DPP1 enzyme (R&D Systems, Cat. No. 1071-CY) at a final concentration of 100 μg/mL was mixed with recombinant human cathepsin L (R&D Systems, Cat. No. 952-CY) at a final concentration of 20 μg/mL were mixed and incubated at room temperature for 1 hour to activate the DPP1 enzyme. The activated DPP1 enzyme was diluted 100-fold, and 5 μL of compounds at different concentrations and 5 μL of the diluted DPP1 enzyme were added to a 384-well plate and incubated at room temperature for 30 minutes. […] IC50 values were calculated using the DosResp function of the Origin2019 software.

[2] = Pharmacokinetic experiment in rats; type: in vivo; settings: rat, male SD rats, plasma; for Vd: read-out: Vdss
Description: 1.1 Test animals: Male SD rats, about 220 g, 6-8 weeks old, 6 rats/compound. The rats were purchased from CHENGDU DOSSY EXPERIMENTAL ANIMALS CO., LTD.
1.2 Test design: On the day of the experiment, 6 SD rats were randomly grouped according to their body weight. The rats were fasted but given water for 12-14 h one day before the administration, and were fed 4 h after the administration.
Before and after the administration, 0.1 ml of blood was taken from the orbit of the rats under isoflurane anesthesia and placed in an EDTAK2 centrifuge tube. The blood was centrifuged at 5000 rpm and 4° C. for 10 min to collect plasma. Blood sampling time point for the intravenous administration group: 0, 5, 15, 30 min, 1, 2, 4, 6, 8, and 24 h; and blood sampling time point for the intragastric administration group: 0, 5, 15, 30 min, 1, 2, 4, 6, 8, and 24 h. Before analysis and detection, all samples were stored at −80° C.

Sequence of Recombinant human DPP1 enzyme (P53634 25-134): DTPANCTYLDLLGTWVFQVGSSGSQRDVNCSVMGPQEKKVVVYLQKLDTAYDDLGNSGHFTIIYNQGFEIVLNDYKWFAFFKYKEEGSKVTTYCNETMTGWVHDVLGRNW
Sequence of Recombinant human DPP1 enzyme (P53634 231-394): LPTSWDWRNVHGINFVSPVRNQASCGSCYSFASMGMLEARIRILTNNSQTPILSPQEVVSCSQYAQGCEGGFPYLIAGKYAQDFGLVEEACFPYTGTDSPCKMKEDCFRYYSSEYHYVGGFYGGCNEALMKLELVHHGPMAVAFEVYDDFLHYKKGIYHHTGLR
Sequence of Recombinant human DPP1 enzyme (P53634 395-463): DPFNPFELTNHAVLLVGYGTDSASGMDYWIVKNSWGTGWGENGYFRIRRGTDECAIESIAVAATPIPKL

SMILES	IC50 [1]	other results
COC1CNCC(C(=O)N[C@H](C#N)Cc2ccc(-c3ccc(S(F)(F)(F)(F)F)cc3)cc2F)OC1 (stereo partly drawn) [Compound 43, N—((S)-1-cyano-2-(3-fluoro-4′-(pentafluoro-16-sulfanyl)-[1,1′-biphenyl]-4-yl)ethyl)-6-methoxy-1,4-oxazepane-2-carboxamide]	0.3 nM	–
Cn1c(=O)oc2ccc(-c3ccc(C[C@@H](C#N)NC(=O)[C@@H]4CNCCCO4)cc3)cc21 [INS1007, reference compound]	–	AUC(0-t) ([2]; iv, intravenously 1 mg/kg): 8400 ng·h/mL; clearance ([2]; iv, intravenously 1 mg/kg): 2.08 mL/min/kg; Vd ([2]; iv, intravenously 1 mg/kg): 0.738 L/kg; bioavailability ([2]; po, intragastrically 3 mg/kg): 88.1%; AUC(0-t) ([2]; po, intragastrically 3 mg/kg): 22200 ng·h/mL
N#C[C@H](Cc1ccc(-c2nc3ccccc3s2)cc1F)NC(=O)[C@@H]1CNCCCO1 [Compound 13, (S)—N—((S)-2-(4-(benzo[d]thiazol-2-yl)-2-fluorophenyl)-1-cyanoethyl)-1,4-oxazepane-2-carboxamide]	71 nM	–
N#C[C@H](Cc1ccc(C#CC2CCCC2)cc1F)NC(=O)[C@@H]1CNCCCO1 [Compound 11, (S)—N—((S)-1-cyano-2-(4-(cyclopentylethynyl)-2-fluorophenyl)ethyl)-1,4-oxazepane-2-carboxamide]	239 nM	–
Cn1c(=O)oc2ccc(-c3ccc(C[C@@H](C#N)NC(=O)[C@@H]4CNCCCO4)c(F)c3)cc21 [Compound 1, (S)—N—((S)-1-cyano-2-(2-fluoro-4-(3-methyl-2-oxo-2,3-dihydrobenzo[d]oxazol-5-yl)phenyl)ethyl)-1,4-oxazepane-2-carboxamide]	–	AUC(0-t) ([2]; iv, intravenously 1 mg/kg): 9500 ng·h/mL; clearance ([2]; iv, intravenously 1 mg/kg): 1.66 mL/min/kg; Vd ([2]; iv, intravenously 1 mg/kg): 0.753 L/kg; bioavailability ([2]; po, intragastrically 3 mg/kg): > 100%; AUC(0-t) ([2]; po, intragastrically 3 mg/kg): 31200 ng·h/mL

Further lines, with some results ahead:

IC50 [1]	SMILES	other results
7.4 nM	N#Cc1ccc(-c2ccc(C[C@@H](C#N)NC(=O)[C@@H]3CNCCCO3)c(F)c2)cc1C1CC1 [Compound 17, (S)—N—((S)-1-cyano-2-(4′-cyano-3′-cyclopropyl-3-fluoro-[1,1′-biphenyl]-4-yl)ethyl)-1,4-oxazepane-2-carboxamide]	–
4 nM	Cn1c(=O)oc2ccc(-c3cc(F)c(C[C@@H](C#N)NC(=O)[C@@H]4CNCCCO4)cn3)cc21 [Compound 35, (S)—N—((S)-1-cyano-2-(4-fluoro-6-(3-methyl-2-oxo-2,3-dihydrobenzo[d]oxazol-5-yl)pyridin-3-yl)ethyl)-1,4-oxazepane-2-carboxamide]	–
4.9 nM	N#Cc1ccc(-c2ccc(C[C@@H](C#N)NC(=O)[C@@H]3CNCCCO3)c(F)c2)cc1C(F)(F)F [Compound 29, (S)—N—((S)-1-cyano-2-(4′-cyano-3-fluoro-3′-(trifluoromethyl)-[1,1′-biphenyl]-4-yl)ethyl)-1,4-oxazepane-2-carboxamide]	–
12.9 nM	CN1CCN(Cc2ccc(-c3ccc(C[C@@H](C#N)NC(=O)[C@@H]4CNCCCO4)c(F)c3)cc2)CC1 [Compound 14, (S)—N—((S)-1-cyano-2-(3-fluoro-4′-((4-methylpiperazin-1-yl)methyl)-[1,1′-biphenyl]-4-yl)ethyl)-1,4-oxazepane-2-carboxamide]	–
33 nM	Cc1csc(-c2ccc(C[C@@H](C#N)NC(=O)[C@@H]3CNCCCO3)c(F)c2)n1 [Compound 15, (S)—N—((S)-1-cyano-2-(2-fluoro-4-(4-methylthiazol-2-yl)phenyl)ethyl)-1,4-oxazepane-2-carboxamide]	–
21 nM	Cc1nc(-c2ccc(C[C@@H](C#N)NC(=O)[C@@H]3CNCCCO3)c(F)c2)sc1C#N [Compound 12, (S)—N—((S)-1-cyano-2-(4-(5-cyano-4-methylthiazol-2-yl)-2-fluorophenyl)ethyl)-1,4-oxazepane-2-carboxamide]	–
6.7 nM	N#C[C@H](Cc1ccc(-c2ccc3c(c2)CCNC3=O)cc1F)NC(=O)[C@@H]1CNCCCO1 [Compound 10, (S)—N—((S)-1-cyano-2-(2-fluoro-4-(1-oxo-1,2,3,4-tetrahydroisoquinolin-6-yl)phenyl)ethyl)-1,4-oxazepane-2-carboxamide]	–
